Values of other authors in patent publication US7122195B2, “Mutant mycobacteria for use in therapy” (priority 2000, dated 2006).

System: M. tuberculosis complex

## Cc1ncc([N+](=O)[O-])n1CCO [Metronidazole]
  Activity on anaerobic grown M. tuberculosis complex: acts exclusively on anaerobic grown
  Effect on growth of aerobic grown cultures: does not affect the growth
